# Legend:
# [1] = biological target: DNA (cytosine-5)-methyltransferase 1 (Homo sapiens, UniProt P26358); assay: Inhibitory activity against DNA methyl transferase in leukemic NALM6 cells; format: cell-based, NALM-6
# [2] = biological target: Orphan methyltransferase M.SssI (Spiroplasma monobiae, UniProt P15840); assay: Inhibition of recombinant CpG methylase M.SssI
# Chain of Orphan methyltransferase M.SssI (P15840 whole entry): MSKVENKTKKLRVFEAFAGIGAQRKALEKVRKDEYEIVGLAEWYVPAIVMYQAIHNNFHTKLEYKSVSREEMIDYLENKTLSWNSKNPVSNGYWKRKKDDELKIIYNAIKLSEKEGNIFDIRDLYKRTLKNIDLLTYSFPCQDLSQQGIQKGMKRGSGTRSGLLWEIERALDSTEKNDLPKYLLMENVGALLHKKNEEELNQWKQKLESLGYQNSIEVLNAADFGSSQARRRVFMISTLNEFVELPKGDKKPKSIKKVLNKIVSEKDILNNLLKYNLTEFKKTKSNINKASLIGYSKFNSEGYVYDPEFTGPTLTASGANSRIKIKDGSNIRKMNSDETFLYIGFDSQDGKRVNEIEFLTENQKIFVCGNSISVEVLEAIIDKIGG
# Chain of DNA (cytosine-5)-methyltransferase 1 (P26358 whole entry): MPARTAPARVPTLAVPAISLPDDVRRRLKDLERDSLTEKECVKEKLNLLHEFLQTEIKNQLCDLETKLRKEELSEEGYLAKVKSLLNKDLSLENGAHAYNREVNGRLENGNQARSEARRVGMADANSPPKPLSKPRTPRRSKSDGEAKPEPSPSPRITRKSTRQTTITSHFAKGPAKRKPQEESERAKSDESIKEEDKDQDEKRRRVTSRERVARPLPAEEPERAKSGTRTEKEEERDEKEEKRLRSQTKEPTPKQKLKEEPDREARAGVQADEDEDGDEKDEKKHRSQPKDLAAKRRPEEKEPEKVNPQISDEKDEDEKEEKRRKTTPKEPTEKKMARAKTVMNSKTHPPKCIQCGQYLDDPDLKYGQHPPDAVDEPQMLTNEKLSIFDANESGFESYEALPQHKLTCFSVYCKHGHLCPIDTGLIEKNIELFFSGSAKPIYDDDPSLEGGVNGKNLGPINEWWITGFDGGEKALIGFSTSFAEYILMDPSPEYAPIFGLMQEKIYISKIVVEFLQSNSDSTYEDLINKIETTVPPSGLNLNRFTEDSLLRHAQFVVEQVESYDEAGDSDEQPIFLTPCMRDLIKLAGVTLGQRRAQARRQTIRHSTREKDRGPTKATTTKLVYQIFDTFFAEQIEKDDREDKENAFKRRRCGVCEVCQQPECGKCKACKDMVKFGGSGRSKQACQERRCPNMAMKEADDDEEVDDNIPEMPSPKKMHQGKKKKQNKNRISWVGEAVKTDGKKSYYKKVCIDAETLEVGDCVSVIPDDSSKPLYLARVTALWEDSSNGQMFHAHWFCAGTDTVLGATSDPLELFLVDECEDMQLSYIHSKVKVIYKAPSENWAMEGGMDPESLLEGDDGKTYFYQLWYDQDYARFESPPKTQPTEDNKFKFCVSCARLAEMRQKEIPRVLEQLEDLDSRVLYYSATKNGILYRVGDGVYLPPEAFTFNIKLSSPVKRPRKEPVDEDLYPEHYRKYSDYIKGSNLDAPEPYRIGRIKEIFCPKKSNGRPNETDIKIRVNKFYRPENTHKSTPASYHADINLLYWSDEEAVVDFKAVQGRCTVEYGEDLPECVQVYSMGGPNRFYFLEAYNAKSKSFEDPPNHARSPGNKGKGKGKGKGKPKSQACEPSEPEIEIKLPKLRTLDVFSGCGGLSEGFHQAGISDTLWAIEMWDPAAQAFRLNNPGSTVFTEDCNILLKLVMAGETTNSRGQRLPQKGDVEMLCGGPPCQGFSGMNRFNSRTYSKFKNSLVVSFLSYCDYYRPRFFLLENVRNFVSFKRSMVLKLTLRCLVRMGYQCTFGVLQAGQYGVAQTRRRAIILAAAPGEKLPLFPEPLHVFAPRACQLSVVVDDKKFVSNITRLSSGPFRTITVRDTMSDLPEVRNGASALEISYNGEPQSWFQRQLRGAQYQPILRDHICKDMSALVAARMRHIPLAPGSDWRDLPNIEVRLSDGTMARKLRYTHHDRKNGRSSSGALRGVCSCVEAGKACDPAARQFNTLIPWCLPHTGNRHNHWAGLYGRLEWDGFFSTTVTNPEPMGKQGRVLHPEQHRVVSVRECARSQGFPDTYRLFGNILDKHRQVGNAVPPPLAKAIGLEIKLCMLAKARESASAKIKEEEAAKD
Compound,IC50 [1] [µM],IC50 [2] [µM]
Cc1ccn2c(CCc3nnc4cc(C)ccn34)nnc2c1,100,0.4
O=C(O)C(Cc1c[nH]c2ccccc12)N1C(=O)c2ccccc2C1=O (centres undefined),50,0.6

# Source: ChEMBL document CHEMBL1147744, “Discovery of two novel, small-molecule inhibitors of DNA methylation” (J Med Chem, 2006)
